The data set is described as follows: Prodrug to drug conversion half-life in vitro, PBS pH 7.4, 37° C. Format: physicochemical. Conditions: buffer. As to the method:
General Methods for Measuring Conversion Half-Life
The assay was performed to investigate the conversion half-life of prodrug to drug of the prodrugs of the invention.
Peptide stock solutions were prepared by dissolving freeze-dried powder in PBS buffer to a target of 200 μM. PBS-buffer was Dulbecco's Phosphate Buffered Saline without CaCl2 and MgCl2, gibco 14190-094 adjusted to pH=7.4. The pH of the peptide stock solutions was adjusted to 7.4 with 0.02 M HCl or 0.02M NaOH. Samples were filled in Agilent HPLC vials with fixed insert. Vials were capped to prevent evaporation. The HPLC vials were incubated at 37° C. and samples were withdrawn at different time points over a period of 2 weeks, flash frozen at −80° C., and stored at −20° C. until analysis.
Sample analysis was carried out using UPLC coupled to UV detection at 215 nm and MS (UPLC-UV-MS). One μl of sample was injected on to a Waters Acquity UPLC with a flow-through-needle injection system and on to a Waters Acquity CSH C18 column (1*150 mm), with a particle size of 1.7 μm and held at 55° C. A flow-rate of 100 μl/min was delivered with a Binary solvent manager pump having 0.1% formic acid in water as solvent A and 0.1% formic acid in acetonitrile as solvent B. Gradient elution was carried out using 15-32% B from 0 to 4 min followed by 32 to 48% B from 4 to 54 min. […]

A word on the half-life: it is the time needed for the level to fall by half in the phase considered.

Regarding `CC[C@H](C)[C@H](NC(=O)[C@H](Cc1ccccc1)NC(=O)[C@H](CCC(=O)O)NC(=O)[C@H](CCCCNC(=O)COCCOCCNC(=O)COCCOCCNC(=O)CC[C@H](NC(=O)CCCCCCCCCCCCCCCCC(=O)O)C(=O)O)NC(=O)[C@H](C)NC(=O)[C@H](C)NC(=O)[C@H](CCC(N)=O)NC(=O)CNC(=O)[C@H](CCC(=O)O)NC(=O)[C@H](CC(C)C)NC(=O)[C@H](Cc1ccc(O)cc1)NC(=O)[C@H](CO)NC(=O)[C@H](CO)NC(=O)[C@@H](NC(=O)[C@H](CC(=O)O)NC(=O)[C@H](CO)NC(=O)[C@@H](NC(=O)[C@H](Cc1ccccc1)NC(=O)[C@@H](NC(=O)CNC(=O)[C@H](CCC(=O)O)NC(=O)C(C)(C)NC(=O)[C@H](Cc1c[nH]cn1)NC(=O)CN(CCNC(=O)CC[C@H](NC(=O)CCCCCCCCCOc1ccc(C(=O)O)cc1)C(=O)O)C(=O)CN)[C@@H](C)O)[C@@H](C)O)C(C)C)C(=O)N[C@@H](C)C(=O)N[C@@H](Cc1c[nH]c2ccccc12)C(=O)N[C@@H](CC(C)C)C(=O)N[C@H](C(=O)N[C@@H](CCCNC(=N)N)C(=O)NCC(=O)N[C@@H](CCCNC(=N)N)C(=O)NCC(=O)O)C(C)C` [Chem. 18, Gly-N^α-2-[[(4S)-4-carboxy-4-[10-(4-carboxyphenoxy)decanoylamino]butanoyl]amino]ethyl-Gly-semaglutide], the half-life is 115 h.

Consider `CC[C@H](C)[C@H](NC(=O)[C@H](Cc1ccccc1)NC(=O)[C@H](CCC(=O)O)NC(=O)[C@H](CCCCNC(=O)COCCOCCNC(=O)COCCOCCNC(=O)CC[C@H](NC(=O)CCCCCCCCCCCCCCCCC(=O)O)C(=O)O)NC(=O)[C@H](C)NC(=O)[C@H](C)NC(=O)[C@H](CCC(N)=O)NC(=O)CNC(=O)[C@H](CCC(=O)O)NC(=O)[C@H](CC(C)C)NC(=O)[C@H](Cc1ccc(O)cc1)NC(=O)[C@H](CO)NC(=O)[C@H](CO)NC(=O)[C@@H](NC(=O)[C@H](CC(=O)O)NC(=O)[C@H](CO)NC(=O)[C@@H](NC(=O)[C@H](Cc1ccccc1)NC(=O)[C@@H](NC(=O)CNC(=O)[C@H](CCC(=O)O)NC(=O)C(C)(C)NC(=O)[C@H](Cc1c[nH]cn1)NC(=O)CN(CCNC(=O)CC[C@H](NC(=O)CCCCCCCCCCOc1ccc(C(=O)O)cc1)C(=O)O)C(=O)CN)[C@@H](C)O)[C@@H](C)O)C(C)C)C(=O)N[C@@H](C)C(=O)N[C@@H](Cc1c[nH]c2ccccc12)C(=O)N[C@@H](CC(C)C)C(=O)N[C@H](C(=O)N[C@@H](CCCNC(=N)N)C(=O)NCC(=O)N[C@@H](CCCNC(=N)N)C(=O)NCC(=O)O)C(C)C` [Chem. 26, Gly-N^α-2-[[(4S)-4-carboxy-4-[11-(4-carboxyphenoxy)undecanoylamino]butanoyl]amino]ethyl-Gly-semaglutide], for which the half-life is 118 h.
